Data from US20040072842A1 (published 2004).

SMILES	melting point [°C]
O=C(COCc1ccccc1)N1CCN(c2ccc(N3C[C@H](CNC(=S)C(F)F)OC3=O)cc2)CC1	166 to 168
O=C(CO)N1CCC(c2ccc(N3C[C@H](CNC(=S)C(F)F)OC3=O)cc2F)CC1	151 to 152
